Reference: patent US20250051344A1, “BIFUNCTIONAL SELECTIVE DEGRADERS OF SMARCA2 AND THERAPEUTIC USES THEREOF” (Nurix Therapeutics, Inc., priority 2023, published 2025)

Columns and labels:
SMARCA2 = target: T1, SMARCA2 (Homo sapiens, UniProt P51531); assay: SMARCA2 Cellular Degradation Assay (Western blot analysis on Jess platform); format: cell-based; settings: for DC50 / Dmax: cellular degradation; for Fold Selectivity SMARCA4/2: ratio DC50 SMARCA4 / DC50 SMARCA2
T1 construct: endogenous in cells
T1 sequence (P51531 whole entry, species assumed): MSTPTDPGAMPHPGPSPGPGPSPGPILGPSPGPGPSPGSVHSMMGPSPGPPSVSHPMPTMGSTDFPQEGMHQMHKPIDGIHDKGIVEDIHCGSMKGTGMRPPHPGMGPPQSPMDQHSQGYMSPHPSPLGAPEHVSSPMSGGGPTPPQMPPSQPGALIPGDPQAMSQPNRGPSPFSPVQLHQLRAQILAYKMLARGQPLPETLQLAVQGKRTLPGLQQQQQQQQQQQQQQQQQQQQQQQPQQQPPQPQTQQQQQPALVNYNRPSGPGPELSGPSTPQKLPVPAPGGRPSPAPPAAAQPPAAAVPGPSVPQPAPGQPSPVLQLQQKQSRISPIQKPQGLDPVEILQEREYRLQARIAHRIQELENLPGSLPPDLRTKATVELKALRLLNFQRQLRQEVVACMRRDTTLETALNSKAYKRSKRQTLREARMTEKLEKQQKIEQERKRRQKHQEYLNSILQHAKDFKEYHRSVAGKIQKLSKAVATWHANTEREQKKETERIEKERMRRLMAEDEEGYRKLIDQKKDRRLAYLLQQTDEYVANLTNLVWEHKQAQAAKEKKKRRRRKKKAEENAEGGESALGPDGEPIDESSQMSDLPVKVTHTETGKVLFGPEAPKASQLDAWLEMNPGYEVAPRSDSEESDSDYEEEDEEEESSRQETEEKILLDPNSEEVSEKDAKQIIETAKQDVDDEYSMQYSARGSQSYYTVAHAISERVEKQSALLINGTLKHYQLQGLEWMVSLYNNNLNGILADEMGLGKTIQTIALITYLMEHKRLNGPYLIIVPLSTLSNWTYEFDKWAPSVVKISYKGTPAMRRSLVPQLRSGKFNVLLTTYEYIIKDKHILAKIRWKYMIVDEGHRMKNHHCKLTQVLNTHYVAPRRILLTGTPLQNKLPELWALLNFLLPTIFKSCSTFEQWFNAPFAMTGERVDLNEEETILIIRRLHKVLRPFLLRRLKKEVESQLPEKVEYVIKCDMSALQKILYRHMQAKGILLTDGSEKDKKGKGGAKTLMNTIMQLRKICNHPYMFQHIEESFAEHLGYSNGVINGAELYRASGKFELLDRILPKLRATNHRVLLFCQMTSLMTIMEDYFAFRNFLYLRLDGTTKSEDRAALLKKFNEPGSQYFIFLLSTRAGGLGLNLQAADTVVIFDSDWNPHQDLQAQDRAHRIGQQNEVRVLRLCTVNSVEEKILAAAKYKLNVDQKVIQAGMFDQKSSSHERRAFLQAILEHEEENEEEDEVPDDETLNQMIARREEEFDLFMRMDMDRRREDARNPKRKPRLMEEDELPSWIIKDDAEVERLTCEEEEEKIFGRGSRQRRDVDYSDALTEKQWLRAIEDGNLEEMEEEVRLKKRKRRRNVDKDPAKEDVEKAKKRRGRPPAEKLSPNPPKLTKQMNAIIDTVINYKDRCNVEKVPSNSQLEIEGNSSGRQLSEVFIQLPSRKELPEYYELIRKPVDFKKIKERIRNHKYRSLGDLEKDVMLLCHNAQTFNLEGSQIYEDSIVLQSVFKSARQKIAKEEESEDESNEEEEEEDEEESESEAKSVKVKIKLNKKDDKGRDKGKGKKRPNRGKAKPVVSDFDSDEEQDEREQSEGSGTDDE
Procedure: SMARCA2 Cellular Degradation Assay
Western Blot Analysis for SMARCA2 Degradation
Frozen cell pellets were thawed on ice and resuspended in RIPA lysis buffer (Millipore, Cat. No. 20-188) supplemented with 0.2% SDS (Fisher Scientific, Cat. No. 24730020), 200 mM β-glycerophosphate (Alfa Aesar, Cat. No. J62121), 500 mM NaF (Rigaku, Cat. No. 1008046), protease inhibitor (1 tablet per 10 mL, Sigma, Cat. No. 11836170001), 250 U/μL benzonase (Millipore, Cat. No. 71206), 200 mM sodium orthovanadate (FivePhoton, Cat. No. ActVO-4), and 100 mM PMSF (Sigma, Cat. No. 10837091001). 50 μL lysis buffer was used to lyse each pellet containing 5×10E5-1×10E6 live cells extracted from tumors. Lysates were centrifuged for 10 mins at 20,817×g and lysate supernatants were saved for further analysis. Protein levels were determined by the BCA Assay performed according to manufacturer's protocol (EMD Millipore, Cat. No. 71285-3). Samples were evaluated by Western blot analysis on the Jess Platform (ProteinSimple). Lysates were diluted with complete lysis buffer (as described above) and 5 μg of total proteins were loaded onto each capillary. Samples were prepared using the ProteinSimple EZ Standard Pack 1 (Cat. No. PS-ST01EZ-8; containing tubes with powdered (5×) Fluorescent Master Mix, DTT, and biotinylated ladder) and run using the ProteinSimple 25-Capillary Cartridge kit (Cat. No. SM-W004; containing 25-capillary cartridge Wash reagent, and 10× Sample Buffer reagent), the ProteinSimple Anti-Rabbit HRP Detection Module for Jess (Cat. No. DM-001; containing Antibody Diluent, anti-rabbit secondary antibody, Luminol-S, Peroxide, and Streptavidin-HRP), and the ProteinSimple Anti-Mouse NIR Detection Module for Jess (Cat. No. DM-009; containing Antibody Diluent, anti-mouse NIR secondary antibody, and Streptavidin-NIR) as the following describes. The DTT was reconstituted with 40 μL water to make a 400 mM solution, 20 μL of the DTT solution plus 20 μL of 10× Sample Buffer were added to reconstitute the 5× Fluorescent Master Mix, and 20 μL of H2O was used to reconstitute the biotinylated ladder. For each sample, lysate (4 μL) was combined with 5× Fluorescent Master Mix (1 μL) and heated at 95° C. for 5 minutes. Samples were cooled and stored on ice. Primary antibody solution was made using anti-SMARCA2 antibody (Abcam, Cat. No. 240648, 1:10) and anti-beta-Actin antibody (Cell Signaling Technology, Cat. No. 3700S, 1:25) in antibody diluent. The 25-capillary cartridges were prepared per standard ProteinSimple protocol with each sample in a column. For the biotinylated ladder in column 1, the following were added: 5 µL of ladder sample in Row A, 10 μL of antibody diluent in Rows B and C, 10 μL of Streptavidin-NIR in Row D, and 15 μL of a 50:50 Luminol-s/Peroxide solution in Row E. For each test sample (columns 2-25), the following were added per column: 5 μL of sample in Row A, 10 μL of antibody diluent in Row B, 10 μL of primary antibody solution in Row C, 10 μL of secondary antibody in Row D, and 15 μL of a 50:50 Luminol-S/Peroxide solution in Row E. 500 μL wash buffer was added to the wash buffer wells in the cartridge and cartridge was spun at 1000×g for 5 minutes prior to loading into the Jess. Samples were run using the Chemiluminescence and Fluorescence immunoassays in the ProteinSimple Compass for SimpleWestern program (version 5.0.0). After running, SMARCA2, actin, and background curves were identified in the Compass software; note that in the Compass software, the electropherograms are also visualized as bands for comparison with standard Western blot outputs. The electropherogram area reading for each sample curve was normalized to that of the corresponding actin curve per column following background (capillary background) subtraction using the following equation: […]
Following normalization, the percentage of SMARCA2 remaining per sample relative to the vehicle control was calculated as follows: […]

SMARCA4 = target: T2, SMARCA4 (Homo sapiens, UniProt P51532); assay: Cellular degradation assay, SMARCA4 (Table 1); format: cell-based
T2 construct: endogenous in cells
T2 sequence (P51532 whole entry, species assumed): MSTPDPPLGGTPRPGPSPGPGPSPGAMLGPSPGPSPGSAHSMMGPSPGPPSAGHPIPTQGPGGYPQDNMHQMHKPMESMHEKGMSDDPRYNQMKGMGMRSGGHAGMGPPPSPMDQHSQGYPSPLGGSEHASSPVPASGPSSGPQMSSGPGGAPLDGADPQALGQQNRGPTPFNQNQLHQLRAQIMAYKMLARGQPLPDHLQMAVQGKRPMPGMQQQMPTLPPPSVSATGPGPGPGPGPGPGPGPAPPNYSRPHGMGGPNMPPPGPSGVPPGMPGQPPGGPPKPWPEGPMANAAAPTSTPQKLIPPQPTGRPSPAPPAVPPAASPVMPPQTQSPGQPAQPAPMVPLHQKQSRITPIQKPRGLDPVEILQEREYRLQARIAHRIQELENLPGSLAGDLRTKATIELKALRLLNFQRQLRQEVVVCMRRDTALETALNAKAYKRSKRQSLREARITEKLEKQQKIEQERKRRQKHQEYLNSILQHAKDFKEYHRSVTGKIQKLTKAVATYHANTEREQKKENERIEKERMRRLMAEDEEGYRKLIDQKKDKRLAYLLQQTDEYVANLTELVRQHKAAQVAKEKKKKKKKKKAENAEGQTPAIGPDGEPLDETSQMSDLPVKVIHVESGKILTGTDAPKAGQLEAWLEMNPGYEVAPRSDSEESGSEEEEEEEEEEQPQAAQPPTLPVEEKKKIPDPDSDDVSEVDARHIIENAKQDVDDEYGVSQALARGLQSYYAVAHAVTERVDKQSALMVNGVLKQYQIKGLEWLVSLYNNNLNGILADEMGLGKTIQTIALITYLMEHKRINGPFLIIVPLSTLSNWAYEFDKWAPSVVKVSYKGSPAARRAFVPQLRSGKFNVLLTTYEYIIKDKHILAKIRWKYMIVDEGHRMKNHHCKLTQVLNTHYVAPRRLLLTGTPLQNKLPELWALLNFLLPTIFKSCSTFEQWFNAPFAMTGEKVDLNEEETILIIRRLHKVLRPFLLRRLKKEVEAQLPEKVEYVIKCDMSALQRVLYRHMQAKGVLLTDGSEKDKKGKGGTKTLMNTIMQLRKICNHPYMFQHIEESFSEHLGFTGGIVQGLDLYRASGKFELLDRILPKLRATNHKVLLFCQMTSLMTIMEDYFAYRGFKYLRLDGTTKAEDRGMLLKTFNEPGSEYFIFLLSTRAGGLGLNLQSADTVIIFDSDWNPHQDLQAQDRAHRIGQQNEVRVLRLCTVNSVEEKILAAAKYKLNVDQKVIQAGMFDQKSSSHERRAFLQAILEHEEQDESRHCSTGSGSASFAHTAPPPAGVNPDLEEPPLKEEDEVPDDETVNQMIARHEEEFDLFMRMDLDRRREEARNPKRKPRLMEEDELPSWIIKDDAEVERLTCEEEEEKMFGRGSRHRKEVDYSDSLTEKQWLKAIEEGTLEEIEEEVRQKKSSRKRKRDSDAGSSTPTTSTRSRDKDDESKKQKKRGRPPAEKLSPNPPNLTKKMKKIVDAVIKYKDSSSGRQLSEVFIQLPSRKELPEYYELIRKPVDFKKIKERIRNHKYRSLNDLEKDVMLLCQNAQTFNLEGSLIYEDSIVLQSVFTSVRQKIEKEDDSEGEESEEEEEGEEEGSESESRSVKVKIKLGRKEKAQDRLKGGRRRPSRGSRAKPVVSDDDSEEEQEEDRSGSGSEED

Row | DC50 (SMARCA2) | Dmax (SMARCA2) | Fold Selectivity SMARCA4/2 (SMARCA2) | DC50 (SMARCA4) | Dmax (SMARCA4) | Compound
1 | 15.7 nM | 87.4% | 8 | 129 nM | 68.4% | O=C1CC[C@H](c2ccc(N3CCC(CCN4CCC(Oc5ccccc5)(C(=O)NCC5(c6ccccc6)CCN(c6cnnc(-c7ccccc7O)c6)CC5)CC4)CC3)cc2)C(=O)N1 (racemic) [Example 103, rac-(r)-1-(2-(1-(4-(2,6-dioxopiperidin-3-yl)phenyl)piperidin-4-yl)ethyl)-n-((1-(6-(2-hydroxyphenyl)pyridazin-4-yl)-4-phenylpiperidin-4-yl)methyl)-4-phenoxypiperidine-4-carboxamide]
2 | 80.7 nM | 61.5% | 123.86 | – | 29.4% | O=C1CC[C@H](c2ccc(N3CCC(CN4CC(F)C5(C4)CN(C(=O)C4(c6ccccc6)CCN(c6cnnc(-c7ccccc7O)c6)CC4)C5)CC3)cc2)C(=O)N1 (stereo partly drawn) [Example 25, (3R)-3-(4-{4-[(8-fluoro-2-{1-[6-(2-hydroxyphenyl)pyridazin-4-yl]-4-phenylpiperidine-4-carbonyl}-2,6-diazaspiro[3.4]octan-6-yl)methyl]piperidin-1-yl}phenyl)piperidine-2,6-dione]
3 | 44.4 nM | 66.3% | 225 | – | 44.9% | O=C1CCC(c2ccc(N3CCC4(CC3)CC(CN3CC5(CCN(C(=O)C6(c7ccccc7)CCN(c7cnnc(-c8ccccc8O)c7)CC6)CC5)C3)C4)cc2)C(=O)N1 (racemic) [Example 137, rac-(3R)-3-(4-{2-[(7-{1-[6-(2-hydroxyphenyl)pyridazin-4-yl]-4-phenylpiperidine-4-carbonyl}-2,7-diazaspiro[3.5]nonan-2-yl)methyl]-7-azaspiro[3.5]nonan-7-yl}phenyl)piperidine-2,6-dione]
4 | – | 44.8% | 1 | – | 3.22% | O=C1CC[C@H](c2ccc(N3CCC(CN4CC5CCN(C(=O)C6(c7ccccc7)CCN(c7cnnc(-c8ccccc8O)c7)CC6)CC54)CC3)cc2)C(=O)N1 (stereo partly drawn) [Example 38, (3R)-3-(4-{4-[(3-{1-[6-(2-hydroxyphenyl)pyridazin-4-yl]-4-phenylpiperidine-4-carbonyl}-3,8-diazabicyclo[4.2.0]octan-8-yl)methyl]piperidin-1-yl}phenyl)piperidine-2,6-dione]
5 | 0.31 nM | 96.4% | 28 | 8.72 nM | 84.4% | CN(C(=O)C1(c2ccccc2)CCN(c2cnnc(-c3ccccc3O)c2)CC1)C1CCN(CCC2CCN(c3cccc4c3n(C)c(=O)n4C3CCC(=O)NC3=O)CC2)CC1 (racemic) [Example 130, rac-N-{1-[2-(1-{1-[(3r)-2,6-dioxopiperidin-3-yl]-3-methyl-2-oxo-2,3-dihydro-1H-1,3-benzodiazol-4-yl}piperidin-4-yl)ethyl]piperidin-4-yl}-1-[6-(2-hydroxyphenyl)pyridazin-4-yl]-N-methyl-4-phenylpiperidine-4-carboxamide]
6 | 38.5 nM | 63.2% | 260 | – | 36% | O=C1CC[C@H](NC(=O)c2ccc(N3CCC(CN4CCC(NC(=O)C5(c6ccccc6)CCN(c6cnnc(-c7ccccc7O)c6)CC5)CC4)CC3)nc2)C(=O)N1 [Example 156, N-[(3S)-2,6-dioxopiperidin-3-yl]-6-{4-[(4-{l-[6-(2-hydroxyphenyl)pyridazin-4-yl]-4-phenylpiperidine-4-amido}piperidin-1-yl)methyl]piperidin-1-yl}pyridine-3-carboxamide]
7 | 21.1 nM | 69.8% | 474 | – | 33.8% | Cn1nccc1C1(C(=O)N2CC3(CN(CC4CCN(c5ccc(C6CCC(=O)NC6=O)cc5)CC4)C3)C2)CCN(c2cnnc(-c3ccccc3O)c2)CC1 (racemic) [Example 93, rac-(3R)-3-(4-{4-[(6-{1-[6-(2-hydroxyphenyl)pyridazin-4-yl]-4-(1-methyl-1H-pyrazol-5-yl)piperidine-4-carbonyl}-2,6-diazaspiro[3.3]heptan-2-yl)methyl]piperidin-1-yl}phenyl)piperidine-2,6-dione]
8 | – | 53.1% | 1 | – | 32% | O=C1CCC(c2ccc(N3CCC(CNC4CCN(C(=O)C5(c6ccccc6)CCN(c6cnnc(-c7ccccc7O)c6)CC5)CC4)CC3)cc2)C(=O)N1 (racemic) [Example 7, rac-(3R)-3-[4-(4-{[(1-{1-[6-(2-hydroxyphenyl)pyridazin-4-yl]-4-phenylpiperidine-4-carbonyl}piperidin-4-yl)amino]methyl}piperidin-1-yl)phenyl]piperidine-2,6-dione]
9 | 5.57 nM | 83% | 4 | 21.9 nM | 72.8% | CN(CC1(c2ccccc2)CCN(c2cnnc(-c3ccccc3O)c2)CC1)C(=O)C1CCN(CCC2CCN(c3ccc([C@H]4CCC(=O)NC4=O)cc3)CC2)C2(CCC2)C1 (mixture of isomers) [Example 146, rac-5-(2-(1-(4-((r)-2,6-dioxopiperidin-3-yl)phenyl)piperidin-4-yl)ethyl)-n-((1-(6-(2-hydroxyphenyl)pyridazin-4-yl)-4-phenylpiperidin-4-yl)methyl)-n-methyl-5-azaspiro[3.5]nonane-8-carboxamide]
10 | 10.1 nM | 76.2% | 7 | 70.3 nM | 62.2% | O=C1CC[C@H](c2ccc(N3CCC4(CC3)CC(N[C@H]3CC[C@H](NC(=O)C5(c6ccccc6)CCN(c6cnnc(-c7ccccc7O)c6)CC5)CC3)CO4)cc2)C(=O)N1 (mixture of isomers) [Example 178, 1-[6-(2-hydroxyphenyl)pyridazin-4-yl]-4-phenyl-N-[(1r,4r)-4-[(8-{4-[(3RS)-2,6-dioxopiperidin-3-yl]phenyl}-1-oxa-8-azaspiro[4.5]decan-3-yl)amino]cyclohexyl]piperidine-4-carboxamide]
11 | 10.6 nM | 73.7% | 947 | – | 20.7% | Cn1ccc(OC2(C(=O)N3CC4(CN(CCC5CCN(c6ccc(C7CCC(=O)NC7=O)c(F)c6)CC5)C4)C3)CCN(c3cnnc(-c4ccccc4O)c3)CC2)n1 (racemic) [Example 66, rac-3-(2-fluoro-4-(4-(2-(6-(1-(6-(2-hydroxyphenyl)pyridazin-4-yl)-4-((1-methyl-1H-pyrazol-3-yl)oxy)piperidine-4-carbonyl)-2,6-diazaspiro[3.3]heptan-2-yl)ethyl)piperidin-1-yl)phenyl)piperidine-2,6-dione]
12 | – | 47.5% | 1 | – | 33.1% | O=C1CC[C@H](c2ccc(N3CCC(CN4CCCC4C4CCCN(C(=O)C5(c6ccccc6)CCN(c6cnnc(-c7ccccc7O)c6)CC5)C4)CC3)cc2)C(=O)N1 (stereo partly drawn) [Example 37, (3R)-3-[4-(4-{[2-(1-{1-[6-(2-hydroxyphenyl)pyridazin-4-yl]-4-phenylpiperidine-4-carbonyl}piperidin-3-yl)pyrrolidin-1-yl]methyl}piperidin-1-yl)phenyl]piperidine-2,6-dione]
